Test results from ChEMBL document CHEMBL2016512, “Calcitonin gene-related peptide (CGRP) receptor antagonists: novel aspartates and succinates” (Bioorg Med Chem Lett, 2012).

What was measured:
[1] = biological target: T1, Calcitonin gene-related peptide type 1 receptor (Homo sapiens, UniProt O60894+Q16602); assay: Displacement of [125]CGRP from human CGRP receptor expressed in human SK-N-MC cell membrane after 2 hrs by scintillation counting; assay type: cell membranes
[2] = biological target: T1, Calcitonin gene-related peptide type 1 receptor; assay: Antagonist activity at human CGRP receptor expressed in human SK-N-MC cells assessed as inhibition of CGRP-stimulated cAMP production; assay type: functional, cell-based
[3] = tested on: Caco-2; assay: Permeability across human Caco2 cells; assay type: ADME, cell-based
[4] = Aqueous solubility of the compound; assay type: physicochemical; conditions: buffer
[5] = Solubility of the compound; assay type: physicochemical

T1 sequence (Q16602 whole entry, one chain of several): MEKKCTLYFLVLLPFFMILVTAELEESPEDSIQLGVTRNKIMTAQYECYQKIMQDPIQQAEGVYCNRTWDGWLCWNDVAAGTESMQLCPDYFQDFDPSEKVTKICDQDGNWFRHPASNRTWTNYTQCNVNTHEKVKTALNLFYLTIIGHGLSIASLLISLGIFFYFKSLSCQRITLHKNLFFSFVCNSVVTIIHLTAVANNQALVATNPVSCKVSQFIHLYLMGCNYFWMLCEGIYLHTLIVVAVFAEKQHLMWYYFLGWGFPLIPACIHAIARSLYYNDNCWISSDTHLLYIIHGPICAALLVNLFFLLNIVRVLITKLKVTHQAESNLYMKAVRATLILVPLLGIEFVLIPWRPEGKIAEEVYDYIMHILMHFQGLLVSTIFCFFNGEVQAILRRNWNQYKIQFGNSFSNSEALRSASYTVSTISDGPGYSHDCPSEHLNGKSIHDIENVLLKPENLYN

## O=C(C[C@H](Nc1ccc(Br)c2ccccc12)C(=O)N1CCC(N2CCCCC2)CC1)N1CCC(N2Cc3ccccc3NC2=O)CC1
[1]
  IC50: 120 nM

## Cc1cc(CC(CC(=O)N2CCC(n3cc(-c4ccccc4)[nH]c3=O)CC2)C(=O)N2CCC(N3CCCCC3)CC2)cc2cn[nH]c12 (racemic)
[1]
  IC50: 0.15 nM
[2]
  IC50: 0.049 nM

## Cc1cc(CC(CC(=O)N2CCC3(CC2)OC(=O)Nc2ccccc23)C(=O)N2CCC3(CC2)OCCO3)cc2cn[nH]c12 (racemic)
[1]
  IC50: 5.9 nM
[2]
  IC50: 8.8 nM

## O=C(C[C@H](Nc1ccncn1)C(=O)N1CCC(N2CCCCC2)CC1)N1CCC(N2Cc3ccccc3NC2=O)CC1
[1]
  IC50: 1400 nM

## Cc1cc(C[C@H](CC(=O)N2CCC(N3Cc4cccc(F)c4NC3=O)CC2)C(=O)N2CCC(N3CCCCC3)CC2)cc2cn[nH]c12
[3]
  permeability: impermeable
[1]
  IC50: 6.7 nM
[4]
  solubility: Insoluble
[2]
  IC50: 4.6 nM

## O=C(C[C@H](Nc1ccc(Cl)cc1[N+](=O)[O-])C(=O)N1CCC(N2CCCCC2)CC1)N1CCC(N2Cc3ccccc3NC2=O)CC1
[1]
  IC50: 32 nM
[2]
  IC50: 32 nM

## Cc1cc(CC(CC(=O)N2CCC(c3cc4ccccc4[nH]c3=O)CC2)C(=O)N2CCC(N3CCCCC3)CC2)cc2cn[nH]c12 (racemic)
[1]
  IC50: 0.3 nM
[2]
  IC50: 0.12 nM

## Cc1nc(N[C@@H](CC(=O)N2CCC(N3Cc4ccccc4NC3=O)CC2)C(=O)N2CCC(N3CCCCC3)CC2)nc2nn[nH]c12
[1]
  IC50: 73 nM
[2]
  IC50: 120 nM

## Cc1cc(CC(CC(=O)N2CCC3(CC2)OC(=O)Nc2ccccc23)C(=O)N2CCC(N3CCCCC3)CC2)cc2cn[nH]c12 (racemic)
[1]
  IC50: 0.33 nM
[2]
  IC50: 0.7 nM

## O=C(C[C@H](NC1CCC(O)CC1)C(=O)N1CCC(N2CCCCC2)CC1)N1CCC(N2Cc3ccccc3NC2=O)CC1 (stereo not given in full)
[1]
  IC50: 4500 nM

## Cc1nc(N[C@@H](CC(=O)N2CCC(N3Cc4ccccc4NC3=O)CC2)C(=O)N2CCC(N3CCCCC3)CC2)nc(N)c1[N+](=O)[O-]
[1]
  IC50: 80 nM

## Cc1cc(CC(CC(=O)N2CCC(N3Cc4ccccc4NC3=O)CC2)C(=O)N2CCCCC2)cc2cn[nH]c12 (racemic)
[1]
  IC50: 3.7 nM
[2]
  IC50: 6.9 nM

## O=C1Nc2ccccc2C2(CCN(C(=O)CC(Cc3ccc4[nH]ncc4c3)C(=O)N3CCC(N4CCCCC4)CC3)CC2)O1 (racemic)
[1]
  IC50: 15 nM
[2]
  IC50: 53 nM

## Cc1cc(CC(CC(=O)N2CCC(N3Cc4ccccc4NC3=O)CC2)C(=O)N2CCC(N3CCCCC3)CC2)cc2cn[nH]c12 (racemic)
[1]
  IC50: 0.074 nM
[2]
  IC50: 0.068 nM

## O=C(C[C@H](Nc1cc(Cl)ncn1)C(=O)N1CCC(N2CCCCC2)CC1)N1CCC(N2Cc3ccccc3NC2=O)CC1
[1]
  IC50: 98 nM
[2]
  IC50: 46 nM

## O=C(C[C@H](NCc1ccc2[nH]ncc2c1)C(=O)N1CCC(N2CCCCC2)CC1)N1CCC(N2Cc3ccccc3NC2=O)CC1
[1]
  IC50: 130 nM
[2]
  IC50: 300 nM

## O=C(Nc1ccc(Cl)cc1Cl)N[C@@H](CC(=O)N1CCC(N2Cc3ccccc3NC2=O)CC1)C(=O)N1CCC(N2CCCCC2)CC1
[3]
  permeability: impermeable
[5]
  solubility: Insoluble
[1]
  IC50: 36 nM

## O=C(C[C@H](Nc1ccc2[nH]ccc2c1)C(=O)N1CCC(N2CCCCC2)CC1)N1CCC(N2Cc3ccccc3NC2=O)CC1
[1]
  IC50: 180 nM
[2]
  IC50: 59 nM

## O=C(N[C@@H](CC(=O)N1CCC(N2Cc3ccccc3NC2=O)CC1)C(=O)N1CCC(N2CCCCC2)CC1)Oc1ccccc1
[1]
  IC50: 280 nM

## CC(C)(C)OC(=O)N[C@@H](CC(=O)N1CCC(N2Cc3ccccc3NC2=O)CC1)C(=O)N1CCC(N2CCCCC2)CC1
[1]
  IC50: 590 nM

## Cc1cc(C[C@@H](CC(=O)N2CCC(N3Cc4ccccc4NC3=O)CC2)C(=O)N2CCC(N3CCCCC3)CC2)cc2cn[nH]c12
[3]
  permeability: impermeable
[1]
  IC50: 0.06 nM
[4]
  solubility: Insoluble
[2]
  IC50: 0.019 nM

## Cc1cc(CC(CC(=O)N2CCC3(CC2)OC(=O)Nc2ccccc23)C(=O)N2CCCCC2)cc2cn[nH]c12 (racemic)
[1]
  IC50: 19 nM
[2]
  IC50: 34 nM

## O=C(N[C@@H](CC(=O)N1CCC(N2Cc3ccccc3NC2=O)CC1)C(=O)N1CCC(N2CCCCC2)CC1)c1ccc(F)c(F)c1
[1]
  IC50: 430 nM

## Cc1cc(C[C@@H](CC(=O)N2CCC(N3Cc4cccc(F)c4NC3=O)CC2)C(=O)N2CCC(N3CCCCC3)CC2)cc2cn[nH]c12
[3]
  permeability: impermeable
[1]
  IC50: 0.2 nM
[4]
  solubility: Insoluble
[2]
  IC50: 0.082 nM

## O=C1Nc2ccccc2C2(CCN(C(=O)CC(Cc3ccc4[nH]ncc4c3)C(=O)N3CCC4(CC3)OCCO4)CC2)O1 (racemic)
[1]
  IC50: 460 nM

## O=C(Nc1ccccc1F)N[C@@H](CC(=O)N1CCC(N2Cc3ccccc3NC2=O)CC1)C(=O)N1CCC(N2CCCCC2)CC1
[3]
  permeability: impermeable
[5]
  solubility: Insoluble
[1]
  IC50: 45 nM

## Cc1cc(C[C@H](CC(=O)N2CCC(N3Cc4ccccc4NC3=O)CC2)C(=O)N2CCC(N3CCCCC3)CC2)cc2cn[nH]c12
[3]
  permeability: impermeable
[1]
  IC50: 11 nM
[4]
  solubility: Insoluble
[2]
  IC50: 11 nM

## O=C(C[C@H](NCc1ccc2[nH]ccc2c1)C(=O)N1CCC(N2CCCCC2)CC1)N1CCC(N2Cc3ccccc3NC2=O)CC1
[1]
  IC50: 380 nM

## O=C(C[C@H](Nc1cccc2ncccc12)C(=O)N1CCC(N2CCCCC2)CC1)N1CCC(N2Cc3ccccc3NC2=O)CC1
[1]
  IC50: 890 nM

## Cc1cc(CC(CC(=O)N2CCC3(CC2)NC(=O)Nc2ccccc23)C(=O)N2CCC(N3CCCCC3)CC2)cc2cn[nH]c12 (racemic)
[1]
  IC50: 0.34 nM
[2]
  IC50: 0.35 nM

## O=C(CC(Cc1ccc2[nH]ncc2c1)C(=O)N1CCC2(CC1)OCCO2)N1CCC(N2Cc3ccccc3NC2=O)CC1 (racemic)
[1]
  IC50: 87 nM
[2]
  IC50: 320 nM

## O=C(C[C@H](Nc1cccc2ccccc12)C(=O)N1CCC(N2CCCCC2)CC1)N1CCC(N2Cc3ccccc3NC2=O)CC1
[1]
  IC50: 220 nM

## Cc1cc(CC(CC(=O)N2CCC(N3Cc4ccccc4NC3=O)CC2)C(=O)N2CCC3(CC2)OCCO3)cc2cn[nH]c12 (racemic)
[1]
  IC50: 3.2 nM
[2]
  IC50: 5.8 nM

## O=C(C[C@H](Nc1nc(Cl)nc2[nH]ncc12)C(=O)N1CCC(N2CCCCC2)CC1)N1CCC(N2Cc3ccccc3NC2=O)CC1
[1]
  IC50: 250 nM
[2]
  IC50: 99 nM

## O=C(C[C@H](Nc1ccc2[nH]ncc2c1)C(=O)N1CCC(N2CCCCC2)CC1)N1CCC(N2Cc3ccccc3NC2=O)CC1
[1]
  IC50: 170 nM
[2]
  IC50: 230 nM

## Cc1cc(CC(CC(=O)N2CCC(N3Cc4cccc(F)c4NC3=O)CC2)C(=O)N2CCC(N3CCCCC3)CC2)cc2cn[nH]c12 (racemic)
[1]
  IC50: 0.18 nM
[2]
  IC50: 0.089 nM

## O=C(C[C@H](NCc1ccccn1)C(=O)N1CCC(N2CCCCC2)CC1)N1CCC(N2Cc3ccccc3NC2=O)CC1
[1]
  IC50: 700 nM

## O=C(Nc1ccccc1Cl)N[C@@H](CC(=O)N1CCC(N2Cc3ccccc3NC2=O)CC1)C(=O)N1CCC(N2CCCCC2)CC1
[3]
  permeability: impermeable
[5]
  solubility: Insoluble
[2]
  IC50: 100 nM

## O=C(Nc1cccc(Cl)c1Cl)N[C@@H](CC(=O)N1CCC(N2Cc3ccccc3NC2=O)CC1)C(=O)N1CCC(N2CCCCC2)CC1
[3]
  permeability: impermeable
[5]
  solubility: Insoluble
[1]
  IC50: 97 nM

## Cc1cc(CC(CC(=O)N2CCC(N3Cc4ccccc4NC3=O)CC2)C(=O)N2CCC(C)CC2)cc2cn[nH]c12 (racemic)
[1]
  IC50: 2.7 nM
[2]
  IC50: 2 nM
